Experimental findings from article PMC5359555, “Mechanistic and structural basis of bioengineered bovine Cathelicidin-5 with optimized therapeutic activity” (Scientific Reports, 2017) are described below.

One series concerns E. coli BL21 cells. The series is described as follows: Flow cytometry propidium iodide influx, E. coli BL21. It counts as cell-based, Escherichia coli BL21. As to conditions: E. coli BL21, at peptide MIC; 30 min peptide, 10 μg ml^−1 PI. How it is done:
The effect of peptides on the cell-membrane integrity of E. coli BL21 and DH5α and lymphoma cells was studied using the flow cytometer analysis as described elsewhere. The cells were cultured and washed three times using PBS buffer and incubated for 30 minutes with peptides at different concentration. The incubated lymphoma cells were further processed referring to the annexin V-FITC apoptosis kit. Peptide treated and untreated cells (E. coli/lymphoma) were stained with 10 μg ml^−1 propidium iodide (PI) and incubated for additional 30 min. The incubated cells were washed using PBS to remove unbound dye and flow cytometry analysis was carried out using the FACSCalibur and analyzed by CellQuest Pro Version 5.2.1 software (BD Biosciences, NJ, USA).
On the technique in general: Flow cytometry measures light scatter and fluorescence of single cells or particles in a stream.

Another series relates to E. coli BL21 strain. As to the kind of experiment: Transmission electron microscopy, E. coli BL21. The class given is cell-based, Escherichia coli BL21. As to conditions: E. coli BL21, 2 μM, 1 hour 37 °C. Here is the method:
(§1) E. coli DH5α and BL21 strains were subjected to TEM analysis. E. coli strains were cultured at 37°C in LB broth to mid-log phase and harvested by centrifugation at 5000 g for 5 minutes. The cell pellets were re-suspended in fresh LB media with an OD600 = 0.18. A peptide (Syn1) solution at a concentration of 2 μM (MIC) was added to E. coli DH5α and BL21 strains and the samples were incubated at 37°C for 1 hour. The culture was centrifuged at 5000 g for 5 minutes and the cell pellets were collected. The cell pellets were washed twice and re-suspended in 1 mL fixation buffer that contains 2% formaldehyde, 2.5% glutaryldehide in 0.1 M phosphate buffer (pH = 7.4). The fixed bacterial cells were observed under the microscope, JEM-1011 (JEOL, Tokyo, Japan).

The next series relates to E. coli DH5α strain. The series is described as follows: Transmission electron microscopy, E. coli DH5α. It counts as cell-based, Escherichia coli DH5α. The note with it: 4 μM. Here is the method:
as §1, with “A peptide (Syn1) solution at a concentration of 2 μM (MIC) was added to E. coli DH5α and BL21 strains and the samples were incubated at 37°C for 1 hour.” left out

A further series deals with RBCs. As to the kind of experiment: Hemolytic assay (hemoglobin release). As to conditions: 30 μM; RBCs hematocrit ~5%, 1 h 37 °C, absorbance 540 nm, 100% = 2% Triton X-100. It counts as cell-based. How it is done:
Plasmodium falciparum strain 3D7 was cultured in RPMI-1640 supplemented with 25 mg/l L-Glutamine; HEPES, NaHCO3; 50 mg/l Hypoxanthin; Gentamicien; 10% human serum; and RBCs at 3% hematocrit in an atmosphere of 5% CO2, 5% O2, and 90% N2 at 37°C as previously described. The Plasmodium lactate dehydrogenase (pLDH) assay was performed to measure the parasitic growth inhibition as described elsewhere[49] with BMAP-28 and its analogues treatment. In brief, malstat reagent was added to a 96-well plate (100 μL in each well). A Plasmodium infected RBC mixture of 20 μL in each well was mixed thoroughly using a plate shaker. And then 10 μL of each 1 mg/ml diaphorase and Nitroblue tetrozolium (NBT) were added to each well. The solution in the 96-well plate was mixed properly until a brown color appears and the absorbance was measured at 650 nm under a plate reader (PowerWaveHT, BioTek Instruments, USA). The hemolytic assay was carried out as described earlier. Briefly, RBCs prepared from fresh blood (Hematocrit ~5%) were incubated for 1 h at 37 °C after addition of test peptides. Relative hemoglobin concentration in supernatants after centrifugation at 2000× g for 5 min was monitored by measuring the absorbance at 540 nm by the plate reader (PowerWaveHT, BioTek Instruments, USA). As positive control, 100% hemolysis was taken from samples in which 2% Triton X-100 was added.

For a further series, the system named is B16-F1 melanoma cells. As to the kind of experiment: MTT cell-viability assay, B16-F1 melanoma. The class given is cell-based, mouse. How it is done:
The T-cell lymphoma (Jurkat) and B-cell lymphoma (Ramos) were cultured using RPMI-1640 medium supplemented with 10% fetal calf serum (FCS), 100 U ml^−1 penicillin and 100 μg ml^−1 streptomycin. An initial cell densities of 5 × 10^3 cells/well was uniformly maintained in a 96 well plate. The B16-F1 melanoma cells were grown in DMEM medium containing 10% FCS, 100 U ml^−1 penicillin and 100 μg ml^−1 streptomycin and 55 μM 2-mercaptoethanol. The cells were trypsinized and plated in a 96-well plate at a density of 5 × 10^3 cells/well. The cells were grown overnight at 37 °C using a 5% CO2 incubator. The cells were treated with different peptide concentration followed by cell proliferation assay. The MTT assay kit (Cayman chemicals, USA) was used to measure the cell viability at a peptide concentration varying from 2 to 15 μM (in triplicate). Fresh culture medium and cells in medium without peptide were considered as negative and positive controls for viability assay and was monitored at 24, 48 and 72 h. The Cayman MTT cell proliferation assay protocol was followed, and the absorbance were recorded at 570 nm using a microplate reader (PowerWaveHT, BioTek Instruments, USA).
In general terms: Tetrazolium assays rely on reduction of a dye to a coloured formazan, in cell work by metabolically active cells.

The subject of series [1] is osteoclasts (RANKL-induced from MDMs). As to the kind of experiment: RANKL-induced osteoclastogenesis. The note with it: 50 ng/ml RANKL plus M-CSF, TRAP staining after 4 days. It counts as cell-based, mouse. Here is the method:
(§2) The C57BL/6 mice (8 weeks old male) were generated and maintained in a pathogen-free environment as described elsewhere. All animal experiments were carried out under approval from the Animal Research Committee of the Research Institute for Microbial Diseases (Osaka University, Osaka, Japan). All experiments were performed in accordance with relevant guidelines and regulations of Osaka University, Japan. The stromal cell-free osteoclast culture was performed using M-CSF-derived macrophage (MDMs) precursors. The bone marrow cells were flushed from femurs or tibias and cultured for 6 h in α-MEM supplemented with 10% FCS. The non-adherent cells were collected and plated in a 96-well plate at a density of 2 × 10^3 cells/well with 25 ng/ml M-CSF (PeproTech, Rocky Hill, NJ). The cell cultures were rinsed with PBS after 3 days incubation, and the adherent cells were used as MDMs. The MDMs were induced to differentiate into osteoclasts in the presence of 50 ng/ml RANKL plus M-CSF. The cells were treated with different peptide concentration to investigate the effect of peptides on the osteoclastogenesis process. After 4 days, TRAP staining was performed and TRAP positive multinucleated cell numbers (>3 nuclei) were counted.

A further series concerns B16-F1 melanoma tumor. As to the kind of experiment: In vivo B16-F1 melanoma mouse model. The note with it: C57BL/6 mice n = 6, subcutaneous. Here is the method: as §2, with “The MDMs were induced to differentiate into osteoclasts in the presence of 50 ng/ml RANKL plus M-CSF. The cells were treated with different peptide concentration to investigate the effect of peptides on the osteoclastogenesis process.” left out
Healthy C57BL/6 mice (n = 6) were administered with 30 μM Syn1 peptide mixed with 1 × 10^6 B16-F1 melanoma cells in 0.1 ml of saline via subcutaneous injections. […] The growth size of tumors were monitored in every two days and the tumor volume was measured by a dial-caliper on day 14 and 20 using the formula volume = width^2 × length × 0.52.

Where a SMILES comes first, the peptide text is derived from it.

As for `CC[C@H](C)[C@H](NC(=O)[C@H](CCCCN)NC(=O)[C@H](CCCNC(=N)N)NC(=O)CNC(=O)[C@H](Cc1ccccc1)NC(=O)[C@H](CO)NC(=O)[C@H](CCCNC(=N)N)NC(=O)[C@H](Cc1ccccc1)NC(=O)CNC(=O)CN)C(=O)N[C@@H](Cc1ccccc1)C(=O)N[C@@H](CCCNC(=N)N)C(=O)N[C@@H](C)C(=O)N[C@@H](Cc1c[nH]c2ccccc12)C(=O)N[C@@H](CCCCN)C(=O)N[C@@H](CCCCN)C(=O)N[C@@H](Cc1ccc(O)cc1)C(=O)NCC(N)=O` [Syn1] (H-GGFRSFGRKIFRAWKKYG-NH2; N-terminus assumed), in the series on E. coli BL21 cells, the PI influx is ~ 100%. For the same molecule, the “TEM observation (in words)” value in the series with E. coli BL21 strain was “membrane disruption and cell lysis”. Also, the “TEM: membrane abnormalities or disruption (in words)” value in the series with E. coli DH5α strain is given as “not observed”. In addition, the “Hemoglobin release (%) / hemolysis” value in the series with RBCs is 7.2%. Moreover, the “concentration found to be active” value in the series on B16-F1 melanoma cells was ~ 30 μM. In the series with B16-F1 melanoma cells (10 μM), the “anticancer activity (in words)” value was “fairly low anticancer activity”. Besides, the figures for the “activity in RANKL-induced osteoclastogenesis (in words)” value in series [1] (3 μM) and in series [1] (10 μM) were “significant activity” and “complete abolition”, respectively. Also, the “tumor formation (in words)” value with B16-F1 melanoma tumor (30 μM Syn1 mixed with 1 × 10^6 B16-F1 cells in 0.1 ml saline, day 14 and 20) is reported as “no tumor formation”. In the series on B16-F1 melanoma tumor (30 μM Syn1 mixed with 1 × 10^6 B16-F1 cells), the “survival (in words)” value is “alive”.
